# Experimental data from US7704948B2, “Pharmaceutical composition” (Euro-Celtique S.A., priority 2001, dated 2010).
# Columns and labels:
# [1] = cited from earlier work
# [2] = Stability of bisacodyl in poloxamer melt; type: physicochemical; settings: hot melt of bisacodyl and poloxamer
# From the text: Such a product will have advantages with regard to dosage form and other properties. […] Furthermore production scale enteric coating of capsules containing a low melting point, waxy, solid is very difficult due to melting and leakage or softening and deformation of the waxy, low melting point poloxamer.
compound,measurement,setting,value
CC(=O)Oc1ccc(C(c2ccc(OC(C)=O)cc2)c2ccccn2)cc1 [Bisacodyl],time to action in the large intestine,[1]; following oral administration,6 to 12 h
same,onset of action,[1]; suppositories,20 to 60 min
same,stability of bisacodyl in poloxamer,[2],unstable in poloxamer
